# Measurements taken from patent publication US20250161476A1 (REGENERON PHARMACEUTICALS, INC., priority 2020, published 2025).
# *1 amine or outer side, *2 acyl side, *3 side chain or, on linkers, in order; H or OH if unused. Where a SMILES comes first, the peptide text is derived from it. Side-chain parts run from the residue outwards. [ ]: non-standard residue; d: D form. The star is where a group is joined. PEG24 = NCCOCCOCCOCCOCCOCCOCCOCCOCCOCCOCCOCCOCCOCCOCCOCCOCCOCCOCCOCCOCCOCCOCCOCCOCCC(=O)O; Bip(2'-Et-4'-O(CH2)4NH2) = CCc1cc(OCCCCN[*:3])ccc1-c1ccc(C[C@H](N[*:1])C(=O)[*:2])cc1; Bip(2'-Et,4'-O(CH2)4N3) = CCc1cc(OCCCCN=[N+]=[N-])ccc1-c1ccc(C[C@H](N)C(=O)O)cc1; Bip(2'-Et,4'-O(CH2)4NH2) = CCc1cc(OCCCCN)ccc1-c1ccc(C[C@H](N)C(=O)O)cc1; X6 = O=C(NCCOCCOCCOCCOC(=O)*)OC[C@@H]1[C@@H]2CCc3[nH]nnc3CC[C@@H]21; Malonyl(2,2-Me2,histaminyl) = CC(C)(C(=O)NCCc1cnc[nH]1)C(=O)*; Nva(5-(3,5-Me2Ph)) = Cc1cc(C)cc(CCC[C@H](N)C(=O)O)c1; Ala(1H-tetrazol-5-yl) = N[C@@H](Cc1nnn[nH]1)C(=O)O; αMePhe(2-F) = C[C@](N)(Cc1ccccc1F)C(=O)O; DBCO = C1#Cc2ccccc2N(*)Cc2ccccc21; Suc = O=C(CCC(=O)[*:2])[*:1]; Aib = CC(C)(N)C(=O)O
# Legend:
# HEK293/CRE-Luc cells = assay: cAMP responsive luciferase reporter assay, HEK293/CRE-Luc cells (no hGLP1R expression); assay type: cell-based, human
# From the text: (§1) To test the activity of GLP1R agonist payloads, GLP1R agonist linker-payloads (LPs), and anti-GLP1R antibody tethered drug conjugates (ATDCs) of the disclosure, a cell-based cAMP responsive luciferase reporter assay was developed. To generate the assay cell line, the firefly luciferase gene was placed under the control of a cAMP response element (CRE) located upstream of a minimal promoter and transfected into HEK293 cells and referred to herein as HEK293/CRE-Luc cells.
# (§2) Three-fold serial dilutions of free payloads or LPs were prepared in 100% DMSO, transferred to fresh assay media, and added to the cells at a final constant DMSO concentration of 0.2%. The last well in the plate served as a blank control containing only the assay media and 0.2% DMSO (untreated well) and was plotted as a continuation of the 3-fold serial dilution. Four to six hours later, luciferase activity was determined after the addition of One-Glo™ reagent (Promega, Cat #E6130) to each well. Relative light units (RLUs) were measured on an Envision luminometer (PerkinElmer) and EC50 values were determined using a four-parameter logistic equation over a 12-point dose response curve (GraphPad Prism). The signal to noise (S/N) was determined by taking the ratio of the highest RLU on the dose response curve to the RLU in the untreated wells.
# human GLP1R = human GLP1R (Homo sapiens (Human), UniProt P43220); assay: cAMP responsive luciferase reporter assay, HEK293/CRE-Luc/hGLP1R cells; assay type: cell-based
# From the text: as §1, §2
# GLP1R agonist linker payloads were conjugated to anti-hGLP1R antibodies via N-terminal heavy or light chain Q tags. Several resulting anti-GLP1R antibody tethered drug conjugates (ATDCs) were tested for activity in the HEK293/CRE-Luc/hGLP1R reporter assay as described above for the free GLP1R payload and linker-payload agonists.
# [1] = Plasma stability of payloads and linker-payloads, human plasma; assay type: in vitro ADME; settings: for half-life at 2 µM: human, pooled plasma, pH 7.4, payload properties table, species not given, read-out: Plasma stability t½ (converted)
# Protocol: The plasma stability of payloads and linker payloads of the disclosure were measured. For the assay, pooled frozen plasma (human, mouse or monkey) was thawed in cold water or a 37° C. water bath prior to experiment. Plasma was centrifuged at 4000 rpm for 5 min if any clots were observed, they were subsequently removed. If required, the pH was adjusted to 7.4±0.1. For the preparation of compounds and positive controls, a 1 mM intermediate solution was prepared by diluting 10 μL of their stock solution with 90 μL DMSO; a 1 mM intermediate solution of the positive control (Propantheline) was prepared by diluting 10 μL of its stock solution with 90 μL ultrapure water. […] 98 μL of plasma was spiked with 2 μL of dosing solution (100 μM) to achieve the final concentration of 2 μM in duplicate. Samples were then incubated at 37° C. in a water bath. […] At each time point, 400 μL of stop solution (200 ng/mL tolbutamide plus 200 ng/mL labetalol in 50% ACN/MeOH) was added to precipitate protein and mixed thoroughly. Sample plates were then centrifuged at 4,000 rpm for 10 min. An aliquot of supernatant (50 μL) was transferred from each well and mixed with 100 μL ultra-pure water. The samples were then shaken at 800 rpm for approximately 10 min before submitting for LC-MS/MS analysis.
# [2] = relative to P8 of the same experiment
# [3] = human plasma, tested for 7 days (D)
# [4] = human plasma, tested for 3 days (C)
# [5] = human plasma, tested for 1 day (A)
# Sequence of human GLP1R (P43220 24-463): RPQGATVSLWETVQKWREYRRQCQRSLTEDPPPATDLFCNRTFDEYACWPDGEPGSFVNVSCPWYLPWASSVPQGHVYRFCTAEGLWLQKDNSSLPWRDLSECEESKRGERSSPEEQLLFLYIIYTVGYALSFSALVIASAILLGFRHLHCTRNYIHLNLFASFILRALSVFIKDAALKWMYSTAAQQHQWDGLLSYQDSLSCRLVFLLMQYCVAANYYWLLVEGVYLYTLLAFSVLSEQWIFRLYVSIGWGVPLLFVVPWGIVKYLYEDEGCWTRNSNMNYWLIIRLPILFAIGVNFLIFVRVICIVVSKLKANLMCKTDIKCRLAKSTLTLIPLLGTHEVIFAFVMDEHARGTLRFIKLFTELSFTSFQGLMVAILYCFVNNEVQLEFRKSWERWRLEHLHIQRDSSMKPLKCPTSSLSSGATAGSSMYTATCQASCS
smiles,measurement,setting,value
"CC[C@H](C)[C@H](NC(=O)[C@H](Cc1ccccc1)NC(=O)[C@H](CCC(=O)O)NC(=O)[C@H](CCCCN)NC(=O)[C@H](C)NC(=O)[C@H](C)NC(=O)[C@H](CCC(N)=O)NC(=O)CNC(=O)[C@H](CCC(=O)O)NC(=O)[C@H](CC(C)C)NC(=O)[C@H](Cc1ccc(O)cc1)NC(=O)[C@H](CO)NC(=O)[C@H](CO)NC(=O)[C@@H](NC(=O)[C@H](CC(=O)O)NC(=O)[C@H](CO)NC(=O)[C@@H](NC(=O)[C@H](Cc1ccccc1)NC(=O)[C@@H](NC(=O)CNC(=O)[C@H](CCC(=O)O)NC(=O)[C@H](C)NC(=O)[C@@H](N)Cc1c[nH]cn1)[C@@H](C)O)[C@@H](C)O)C(C)C)C(=O)N[C@@H](C)C(=O)N[C@@H](Cc1c[nH]c2ccccc12)C(=O)N[C@@H](CC(C)C)C(=O)N[C@H](C(=O)N[C@@H](CCCCN)C(=O)NCC(=O)N[C@@H](CCCNC(=N)N)C(N)=O)C(C)C [GLP1, Glucagon-like peptide 1, reference compound]",HEK293/CRE-LUC S/N,HEK293/CRE-Luc cells,1.3
same,HEK293/CRE-Luc S/N,"HEK293/CRE-Luc cells; ATDCs, Table 12",1.4
"CCc1cc(OCCCCNC(=O)CCOCCOCCOCCOCCOCCOCCOCCOCCOCCOCCOCCOCCOCCOCCOCCOCCOCCOCCOCCOCCOCCOCCOCCOCCNC(=O)CCC(=O)N2Cc3ccccc3C#Cc3ccccc32)ccc1-c1ccc(C[C@H](NC(=O)[C@H](CC(=O)O)NC(=O)[C@H](CO)NC(=O)[C@@H](NC(=O)[C@](C)(Cc2ccccc2F)NC(=O)[C@@H](NC(=O)CNC(=O)[C@H](Cc2nn[nH]n2)NC(=O)C(C)(C)C(=O)NCCc2cnc[nH]2)[C@@H](C)O)[C@@H](C)O)C(=O)N[C@@H](CCCc2cc(C)cc(C)c2)C(N)=O)cc1 [LP4, DIBAC-suc-PEG24-P9] ({Malonyl(2,2-Me2,histaminyl)}-[Ala(1H-tetrazol-5-yl)]GT[αMePhe(2-F)]TSD[Bip(2'-Et-4'-O(CH2)4NH2)]([PEG24-Suc-DBCO])[Nva(5-(3,5-Me2Ph))]-NH2)",EC50,HEK293/CRE-Luc cells,> 0.2 µM
same,HEK293/CRE-LUC S/N,HEK293/CRE-Luc cells,1.7
same,HEK293/CRE-LUC/hGLP1R S/N,human GLP1R; highest RLU / RLU of untreated wells,63.8
same,HEK293/CRE-LUC/hGLP1R Relative Potency (% P8 EC50),human GLP1R; [2],4.2%
same,HEK293/CRE-LUC/hGLP1R Relative Signal:Noise (% P8),human GLP1R; [2],97.1%
"CCc1cc(OCCCCn2cc(COCCOCCOCCOCCNC(=O)OC[C@@H]3[C@@H]4CCc5[nH]nnc5CC[C@@H]43)nn2)ccc1-c1ccc(C[C@H](NC(=O)[C@H](CC(=O)O)NC(=O)[C@H](CO)NC(=O)[C@@H](NC(=O)[C@](C)(Cc2ccccc2F)NC(=O)[C@@H](NC(=O)CNC(=O)[C@H](Cc2nn[nH]n2)NC(=O)C(C)(C)C(=O)NCCc2cnc[nH]2)[C@@H](C)O)[C@@H](C)O)C(=O)N[C@@H](CCCc2cc(C)cc(C)c2)C(N)=O)cc1 [LP24, triazole-BCN-PEG4-triazole-P8]",Human plasma stability assay T½,[1]; [3],>404.7 h
"CCc1cc(OCCCCNC(=O)OCCOCCOCCOCCNC(=O)OC[C@@H]2[C@@H]3CCc4[nH]nnc4CC[C@@H]32)ccc1-c1ccc(C[C@H](NC(=O)[C@H](CC(=O)O)NC(=O)[C@H](CO)NC(=O)[C@@H](NC(=O)[C@](C)(Cc2ccccc2F)NC(=O)[C@@H](NC(=O)CNC(=O)[C@H](Cc2nn[nH]n2)NC(=O)C(C)(C)C(=O)NCCc2cnc[nH]2)[C@@H](C)O)[C@@H](C)O)C(=O)N[C@@H](CCCc2cc(C)cc(C)c2)C(N)=O)cc1 [LP25, triazole-BCN-PEG4-carbamate-P9] ({Malonyl(2,2-Me2,histaminyl)}-[Ala(1H-tetrazol-5-yl)]GT[αMePhe(2-F)]TSD[Bip(2'-Et-4'-O(CH2)4NH2)](X6)[Nva(5-(3,5-Me2Ph))]-NH2)",Human plasma stability assay T½,[1]; [3],284.8 h
"CCc1cc(OCCCCNC(=O)[C@H](CO)NC(=O)CNC(=O)CNC(=O)CNC(=O)CNC(=O)CCC(=O)N2Cc3ccccc3-c3nn[nH]c3-c3ccccc32)ccc1-c1ccc(C[C@H](NC(=O)[C@H](CC(=O)O)NC(=O)[C@H](CO)NC(=O)[C@@H](NC(=O)[C@](C)(Cc2ccccc2F)NC(=O)[C@@H](NC(=O)CNC(=O)[C@H](Cc2nn[nH]n2)NC(=O)C(C)(C)C(=O)NCCc2cnc[nH]2)[C@@H](C)O)[C@@H](C)O)C(=O)N[C@@H](CCCc2cc(C)cc(C)c2)C(N)=O)cc1 [LP26, triazole-DABAC- G4S-P9]",Human plasma stability assay T½,[1]; [3],>404.7 h
"CCc1cc(OCCCCn2cc(COCCOCCOCCOCCOCCOCCOCCOCCNC(=O)CCC(=O)N3Cc4ccccc4-c4nn[nH]c4-c4ccccc43)nn2)ccc1-c1ccc(C[C@H](NC(=O)[C@H](CC(=O)O)NC(=O)[C@H](CO)NC(=O)[C@@H](NC(=O)[C@](C)(Cc2ccccc2F)NC(=O)[C@@H](NC(=O)CNC(=O)[C@H](Cc2nn[nH]n2)NC(=O)C(C)(C)C(=O)NCCc2cnc[nH]2)[C@@H](C)O)[C@@H](C)O)C(=O)N[C@@H](CCCc2cc(C)cc(C)c2)C(N)=O)cc1 [LP28, triazole-DIBAC-suc-PEG8-triazole-P8]",half-life,"[1]; human plasma, tested for 3 days (C), read-out: Human plasma stability assay T½",> 173 h
"CCc1cc(OCCCCn2cc(COCCOCCOCCOCCOCCOCCOCCOCCN)nn2)ccc1-c1ccc(C[C@H](NC(=O)[C@H](CC(=O)O)NC(=O)[C@H](CO)NC(=O)[C@@H](NC(=O)[C@](C)(Cc2ccccc2F)NC(=O)[C@@H](NC(=O)CNC(=O)[C@H](Cc2nn[nH]n2)NC(=O)C(C)(C)NC(=O)[C@@H](N)Cc2ccc(O)cc2)[C@@H](C)O)[C@@H](C)O)C(=O)N[C@@H](CCCc2cc(C)cc(C)c2)C(N)=O)cc1 [LP29, NH2-PEG8-triazole-P19]",Human plasma stability assay T½,[1]; [4],>173.4 h
"CCc1cc(OCCCCn2cc(COCCOCCOCCOCCOCCOCCOCCOCCC(=O)N[C@@H](CC(C)C)C(=O)N3CCC[C@@H]3C(=O)N[C@@H](CCC(=O)O)C(=O)N[C@H](C(=O)NCC(=O)NCC(=O)O)[C@@H](C)O)nn2)ccc1-c1ccc(C[C@H](NC(=O)[C@H](CC(=O)O)NC(=O)[C@H](CO)NC(=O)[C@@H](NC(=O)[C@](C)(Cc2ccccc2F)NC(=O)[C@@H](NC(=O)CNC(=O)[C@H](Cc2nn[nH]n2)NC(=O)C(C)(C)C(=O)NCCc2cnc[nH]2)[C@@H](C)O)[C@@H](C)O)C(=O)N[C@@H](CCCc2cc(C)cc(C)c2)C(N)=O)cc1 [LP34, GGTEPL-PEG8- triazole-P8]",Human plasma stability assay T½,[1]; [4],>173.4 h
CCc1cc(OCCCCN)ccc1-c1ccc(C[C@H](NC(=O)[C@H](CC(=O)O)NC(=O)[C@H](CO)NC(=O)[C@@H](NC(=O)[C@](C)(Cc2ccccc2F)NC(=O)[C@@H](NC(=O)CNC(=O)[C@@H](N)Cc2nn[nH]n2)[C@@H](C)O)[C@@H](C)O)C(=O)N[C@@H](CCCc2cc(C)cc(C)c2)C(N)=O)cc1 [P2],Human plasma stability assay T½,"[1]; human plasma, tested for 2 hrs (B)",10.74 h
same,half-life at 2 µM,[1],10.7 h
"CCc1cc(OCCCCN)ccc1-c1ccc(C[C@H](NC(=O)[C@H](CC(=O)O)NC(=O)[C@H](CO)NC(=O)[C@@H](NC(=O)[C@](C)(Cc2ccccc2F)NC(=O)[C@@H](NC(=O)CNC(=O)[C@H](Cc2nn[nH]n2)NC(=O)C(C)(C)NC(=O)[C@@H](N)Cc2ccc(O)cc2)[C@@H](C)O)[C@@H](C)O)C(=O)N[C@@H](CCCc2cc(C)cc(C)c2)C(N)=O)cc1 [P19] (H-Y[Aib][Ala(1H-tetrazol-5-yl)]GT[αMePhe(2-F)]TSD[Bip(2'-Et,4'-O(CH2)4NH2)][Nva(5-(3,5-Me2Ph))]-NH2)",Human plasma stability assay T½,[1]; [5],>57.81 h
same,half-life at 2 µM,[1],> 57.8 h
"CCc1cc(OCCCCN=[N+]=[N-])ccc1-c1ccc(C[C@H](NC(=O)[C@H](CC(=O)O)NC(=O)[C@H](CO)NC(=O)[C@@H](NC(=O)[C@](C)(Cc2ccccc2F)NC(=O)[C@@H](NC(=O)CNC(=O)[C@H](Cc2nn[nH]n2)NC(=O)C(C)(C)C(=O)NCCc2cnc[nH]2)[C@@H](C)O)[C@@H](C)O)C(=O)N[C@@H](CCCc2cc(C)cc(C)c2)C(=O)O)cc1 [P41] ({Malonyl(2,2-Me2,histaminyl)}-[Ala(1H-tetrazol-5-yl)]GT[αMePhe(2-F)]TSD[Bip(2'-Et,4'-O(CH2)4N3)][Nva(5-(3,5-Me2Ph))]-OH)",Human plasma stability assay T½,[1]; [5],>57.81 h
